System: ruminal microbiota
Test: Analysis of ruminal samples from cattle fed hop beta acids or Rumensin
Type: in vivo
Conditions: Rumensin 300 mg/day; for Lactate Concentration, % differ from Control / Isobutyrate Concentration, % differ from Control / Isovalerate Concentration, % differ from Control / Valerate Concentration, % differ from Control / Butyrate Concentration, % differ from Control / Propionate Concentration, % differ from Control / Acetate Concentration, % differ from Control / Total VFA Concentration, % differ from Control: rumen fluid; for Lactate Concentration, % differ from Control / Isobutyrate Concentration, % differ from Control / Isovalerate Concentration, % differ from Control / Valerate Concentration, % differ from Control / Butyrate Concentration, % differ from Control / Propionate Concentration, % differ from Control / Acetate Concentration, % differ from Control / Total VFA Concentration, % differ from Control / Ruminal Ammonia Concentration, % differ from Control / Ruminal Acetate:Propionate Ratio, % differ from Control: β-acids averaged over five levels; for Ruminal pH, % differ from Control: β-acids averaged over five levels (10-300 mg/day)
Method: Background: Cattle were fed concentrate-based diets and were administered beta acids of hops (0, 10, 80, 160, 240, or 300 mg/day) or Rumensin (300 mg/day) to determine effects of the additives on ruminal microbiota. Rumen samples were periodically taken and pH, acetate, propionate, butyrate isobutyrate, valerate isovalerate, and total volatile fatty acid (VFA) concentrations were measured. Materials and Methods: A 10% beta acids solution (standard aqueous alkaline solution of beta acids) was subjected to dilution. Dilutions of the 10% beta acids solution were prepared (with water and KOH additions) such that solutions were prepared that contained the proper amount of beta acids (per ml) to provide proper cattle dose in 30 ml total volume (e.g. a solution was prepared that had 10 mg/30 ml (pH of 10.5) and was used to treat the 10 mg/steer/day group; another solution was prepared that had 80 mg/30 ml (pH 10.5) and was used to treat the 80 mg/steer/day group). Each animal was treated with it appropriate 30 ml of solution, once per day. A subset of ruminal fluid samples representing each of the seven treatment groups (control, five levels of beta acids and Rumensin). The beta acid levels were 10, 80 and 160, 240 and 300 mg/animal daily. The rumen fluid sampling was performed at prescribed intervals following feeding. Rumen samples were analyzed using standard accepted methodologies, and concentrations of parameters of interest determined. Results: Described in Tables I through XI are the averaged results from the 24 hour feeding period (i.e. average of analysis results for each parameter, complied from samples taken and analyzed over the course of the 24 hour feeding period) for: the control animals, the animals receiving beta acids treatments (average value at all five levels), and Rumensin treated animals. The Tables provide the maximum, minimum and average values observed. The beta acids (β-acids) and Rumensin values are reported as a percentage of the control. Positive percentage values mean that the treatment (beta acids or Rumensin) exceeded the control by the specified amount (negative values less than control by specified amount.

CCC1(C2OC(C3OC(O)(CO)C(C)CC3C)CC2C)CCC(C2(C)CCC3(CC(O)C(C)C(C(C)C(OC)C(C)C(=O)O)O3)O2)O1 (stereo not drawn) [Rumensin, 4-[2-[5-ethyl-5-[5-[6-hydroxy-6-(hydroxymethyl)-3,5-dimethyl-oxan-2-yl]-3-methyl-oxolan-2-yl]oxolan-2-yl]-9-hydroxy-2,8-dimethyl-1,6-dioxaspiro[4.5]dec-7-yl]-3-methoxy-2-methyl-pentanoic acid]
Lactate Concentration, % differ from Control (Ave over 24 hrs of feeding, control 0.6 mM): 10.2% | Isobutyrate Concentration, % differ from Control (Ave over 24 hrs of feeding, control 0.79 mM): 6.84% | Isovalerate Concentration, % differ from Control (Ave over 24 hrs of feeding, control 1.25 mM): 33.4% | Valerate Concentration, % differ from Control (Ave over 24 hrs of feeding, control 3.06 mM): 31.7% | Butyrate Concentration, % differ from Control (Ave over 24 hrs of feeding, control 9.3 mM): 0.6% | Propionate Concentration, % differ from Control (Ave over 24 hrs of feeding, control 29 mM): 27.9% | Acetate Concentration, % differ from Control (Ave over 24 hrs of feeding, control 38 mM): 9% | Total VFA Concentration, % differ from Control (Ave over 24 hrs of feeding, control 82 mM): 14.9% | Ruminal Ammonia Concentration, % differ from Control (Ave over 24 hrs of feeding, control 3.4 mM): −54.1% | Ruminal Acetate:Propionate Ratio, % differ from Control (Ave over 24 hrs of feeding, control A:P ratio 1.50): −20.4% | Ruminal pH, % differ from Control (Ave value over 24 hrs of feeding, control pH 5.69): −4.45% | Isobutyrate Concentration, % differ from Control (Max over 24 hrs of feeding, control 1.00 mM): 5.00% | Isovalerate Concentration, % differ from Control (Max over 24 hrs of feeding, control 1.81 mM): 26.0% | Lactate Concentration, % differ from Control (Max over 24 hrs of feeding, control 3.0 mM): 66.7% | Valerate Concentration, % differ from Control (Max over 24 hrs of feeding, control 3.80 mM): 39.5% | Butyrate Concentration, % differ from Control (Max over 24 hrs of feeding, control 12.6 mM): −8.7% | Propionate Concentration, % differ from Control (Max over 24 hrs of feeding, control 40 mM): 12.5% | Acetate Concentration, % differ from Control (Max over 24 hrs of feeding, control 49 mM): −2% | Total VFA Concentration, % differ from Control (Max over 24 hrs of feeding, control 107 mM): 0.9% | Ruminal Ammonia Concentration, % differ from Control (Max over 24 hrs of feeding, control 7.2 mM): −41.7% | Ruminal Acetate:Propionate Ratio, % differ from Control (Max over 24 hrs of feeding, control A:P ratio 1.73): 4.0% | Ruminal pH, % differ from Control (Max value over 24 hrs of feeding, control pH 6.60): −5.45% | Lactate Concentration, % differ from Control (Min over 24 hrs of feeding, control 0.2 mM): 0.0% | Isobutyrate Concentration, % differ from Control (Min over 24 hrs of feeding, control 0.57 mM): 17.54% | Isovalerate Concentration, % differ from Control (Min over 24 hrs of feeding, control 0.88 mM): 50.0% | Valerate Concentration, % differ from Control (Min over 24 hrs of feeding, control 1.9 mM): 36.8% | Butyrate Concentration, % differ from Control (Min over 24 hrs of feeding, control 6.6 mM): −75.8% | Propionate Concentration, % differ from Control (Min over 24 hrs of feeding, control 18 mM): 22.2% | Acetate Concentration, % differ from Control (Min over 24 hrs of feeding, control 28 mM): 11% | Total VFA Concentration, % differ from Control (Min over 24 hrs of feeding, control 57 mM): 14.0% | Ruminal Ammonia Concentration, % differ from Control (Min over 24 hrs of feeding, control 0.7 mM): −54.3% | Ruminal Acetate:Propionate Ratio, % differ from Control (Min over 24 hrs of feeding, control A:P ratio 1.30): −25.4% | Ruminal pH, % differ from Control (Min value over 24 hrs of feeding, control pH 5.18): −2.70%
